The values below are quoted from earlier work in patent US5418161A (The Chinese University of Hong Kong, priority 1993, dated 1995).

Consider `O=C1/C(=C2\Nc3ccc(S(=O)(=O)O)cc3C2=O)Nc2ccc(S(=O)(=O)O)cc21` [indigo carmine], for which the solubility in water result is “soluble”.
